Reference: patent publication US12617790B2, “Mitragynine analogs and uses thereof” (Memorial Sloan-Kettering Cancer Center, priority 2015, dated 2026)
Read-outs that look alike come from different tables or passages of the source.

Key:
KOR-1 [1] = target: T1, KOR-1 (Mus musculus, UniProt P33534); assay: Competition binding against 125I-IBNtxA in KOR-1/CHO membranes; settings: 125I-IBNtxA (0.1 nM), CHO membranes, cloned mouse receptor; read-out: Affinity (Ki nM) KOR-1
T1 construct: expressed in transfected cells; host or cells: CHO

MOR-1 [2] = target: T2, MOR-1 (Mus musculus, UniProt P42866); assay: Competition binding against 125I-IBNtxA in MOR-1/CHO membranes
T2 construct: expressed in transfected cells; host or cells: CHO

CD1 mice [3] = assay: Radiant heat tail flick analgesia, sc, CD1 mice; assay type: in vivo; settings: Mus musculus, 0.25 h, ED50, cumulative dose-response, tail flick 15 min after sc dose
DOR-1 [4] = target: T3, DOR-1 (Mus musculus, UniProt P32300); assay: Competition binding against 125I-IBNtxA in DOR-1/CHO membranes
T3 construct: expressed in transfected cells; host or cells: CHO

MOR-1 [5] = target: T2, MOR-1; assay: [35S]GTPγS functional assay, MOR-1 transfected cell membranes; assay type: biochemical; parameters: Emax: dose or concentration left out as unconfirmed; settings: for EC50: agonist stimulation of [35S]GTPγS binding, read-out: MOR-1 EC50; for Emax: read-out: MOR-1 Emax (%)
DOR-1 [6] = target: T3, DOR-1; assay: [35S]GTPγS functional assay, DOR-1 transfected cell membranes; assay type: biochemical; settings: for IC50: antagonism of 100 nM DPDPE, read-out: DOR-1 IC50; for EC50: agonist stimulation of [35S]GTPγS binding
CD1 mice [7] = assay: Radiant heat tail flick analgesia, icv, CD1 mice; assay type: in vivo, mouse; settings: ED50, cumulative dose-response, tail flick 15 min after icv dose
KOR-1 [8] = target: T1, KOR-1; assay: [35S]GTPγS functional assay, KOR-1 transfected cell membranes; assay type: biochemical; settings: for IC50: antagonism of 100 nM U50,488H, read-out: KOR-1 IC50
CD1 mice [9] = assay: Respiratory depression assessment (MouseOx pulse oximeter breath rate)
CD1 male mice = assay: Tolerance study, chronic twice daily dosing, tail flick; settings: Mus musculus, sc, 0 h, read-out: analgesic ED50, naïve (day 0)
[10] = 125I-IBNtxA (0.1 nM), CHO membranes, cloned mouse receptor, read-out: Affinity (Ki nM) DOR-1
[11] = FIG. 14, 5x antinociceptive ED50: VM1502 3.75 mg/kg sc, VM1512 5.0 mg/kg sc, morphine 10 mg/kg

Row | SMILES | Ki (KOR-1 [1]) [nM] | Ki (MOR-1 [2]) [µM] | ED50 (CD1 mice [3]) [mg/kg] | Ki (DOR-1 [4]; [10]) [nM] | EC50 (MOR-1 [5]) [µM] | Emax (MOR-1 [5]) [%] | IC50 (DOR-1 [6]) [µM] | Analgesia icv (CD1 mice [7]) [µg] | IC50 (KOR-1 [8]) [µM] | also measured
1 | CC[C@@H]1CN2CC[C@]3(Nc4cccc(O)c4C3=O)C2C[C@@H]1/C(=C\OC)C(=O)OC (stereo partly drawn) [VM1507, (E)-methyl 2-((1'S,6'S,7'S)-6′-ethyl-4-hydroxy-3-oxo-3′,5′,6′,7′,8′,8a′-hexahydro-2′H-spiro[indoline-2,1′-indolizine]-7′-yl)-3-methoxyacrylate] | 170 | 0.0014 | 0.18 | 6.1 | 0.002 | 124 | 0.293 | – | – | –
2 | Oc1ccc2c3c1O[C@H]1c4[nH]c5ccccc5c4C[C@@]4(O)[C@@H](C2)N(CC2CC2)CC[C@]314 [NTI, Naltrindole, reference compound] | – | – | – | – | – | – | 0.00072 | – | – | Ki (DOR-1 [4]): 0.46 nM
3 | CC[C@@H]1CN2CCc3c([nH]c4ccccc34)[C@@H]2C[C@@H]1/C(=C\OC)C(=O)OC [VM1540, Methyl (E)-2-((2S,3S,12bS)-3-ethyl-1,2,3,4,6,7,12,12b-octahydroindolo[2,3-a]quinolizin-2-yl)-3-methoxyacrylate] | – | – | – | – | – | 74 | – | 0.1 | – | –
4 | Oc1ccc2c3c1O[C@H]1c4[nH]c5c(c4C[C@@]4(O)[C@@H](C2)N(CC2CC2)CC[C@]314)C[C@@]1(O)[C@H]2Cc3ccc(O)c4c3[C@@]1(CCN2CC1CC1)[C@H]5O4 [norBNI, norbinaltorphimine, reference compound] | 0.23 | – | – | – | – | – | – | – | 0.0029 | –
5 | CC[C@@H]1CN2CC[C@]3(Nc4cccc(-c5ccccc5)c4C3=O)C2C[C@@H]1/C(=C\OC)C(=O)OC (stereo partly drawn) [VM1511, (E)-methyl 2-((1'S,6'S,7'S)-6′-ethyl-3-oxo-4-phenyl-3′,5′,6′,7′,8′,8a′-hexahydro-2′H-spiro[indoline-2,1′-indolizine]-7′-yl)-3-methoxyacrylate] | 51 | 0.00091 | 1 | 0.8 | 0.0014 | 123 | – | – | 0.171 | EC50 (DOR-1 [6]): 0.00083 µM; Emax (DOR-1 [6]; percent maximal stimulation relative to DPDPE, read-out: DOR-1 Emax (value in parentheses after EC50)): 89%
6 | CC[C@@H]1CN2CC[C@]3(Nc4cccc(C#N)c4C3=O)C2C[C@@H]1/C(=C\OC)C(=O)OC (stereo partly drawn) [VM1509, (E)-methyl 2-((1'S,6'S,7'S)-4-cyano-6′-ethyl-3-oxo-3′,5′,6′,7′,8′,8a′-hexahydro-2′H-spiro[indoline-2,1′-indolizine]-7′-yl)-3-methoxyacrylate] | 47 | 0.0005 | 0.32 | 2.4 | 0.0007 | 122 | 0.073 | – | 0.721 | –
7 | CC[C@@H]1CN2CCc3c([nH]c4cccc(OC)c34)[C@@H]2C[C@@H]1/C(=C\OC)C(=O)OC [VM1500, (E)-Methyl-2-((2S,3S,12bS)-3-ethyl-8-methoxy-1,2,3,4,6,7,12,12b-octahydroindolo[2,3-a]quinolizin-2-yl)-3-methoxyacrylate] | – | – | 166 | – | – | 65 | – | 42 | – | –
8 | CC[C@@H]1CN2CC[C@@]3(O)C(=Nc4ccccc43)[C@@H]2C[C@@H]1/C(=C\OC)C(=O)OC [VM1522, Methyl (E)-2-((2S,3S,7aS,12bS)-3-ethyl-7a-hydroxy-1,2,3,4,6,7,7a,12b-octahydroindolo[2,3-a]quinolizin-2-yl)-3-methoxyacrylate] | 781 | 0.023 | – | 147 | 0.034 | 116 | – | 0.1 | – | –
9 | CC[C@@H]1CN2CC[C@]3(Nc4cccc(-c5ccoc5)c4C3=O)C2C[C@@H]1/C(=C\OC)C(=O)OC (stereo partly drawn) [VM1512, (E)-methyl 2-((1'S,6'S,7'S)-6′-ethyl-4-(furan-3-yl)-3-oxo-3′,5′,6′,7′,8′,8a′-hexahydro-2′H-spiro[indoline-2,1′-indolizine]-7′-yl)-3-methoxyacrylate] | 39 | 0.00094 | 1.1 | 1.5 | 0.0015 | – | 0.039 | – | 0.202 | respiratory rate (CD1 mice [9]; [11]): showed no signs respiratory depression
10 | CC[C@@H]1CN2CC[C@]3(Nc4ccccc4C3=O)C2C[C@@H]1/C(=C\OC)C(=O)OC (stereo partly drawn) [VM1508, (E)-methyl 2-((1'S,6'S,7'S)-6′-ethyl-3-oxo-3′,5′,6′,7′,8′,8a′-hexahydro-2′H-spiro[indoline-2,1′-indolizine]-7′-yl)-3-methoxyacrylate] | 19 | 0.00046 | 0.24 | 2.9 | 0.0014 | 116 | 0.193 | – | 0.252 | –
11 | CC[C@@H]1CN2CCC3(Nc4c(-c5ccoc5)ccc(OC)c4C3=O)C2C[C@@H]1/C(=C\OC)C(=O)OC (stereo partly drawn) [VM1514, Methyl (E)-2-((6'S,7'S)-6′-ethyl-7-(furan-3-yl)-4-methoxy-3-oxo-2′,3′,6′,7′,8′,8a′-hexahydro-5′H-spiro[indoline-2,1′-indolizin]-7′-yl)-3-methoxyacrylate] | 119 | 0.041 | – | 40 | > 1 | – | – | – | – | EC50 (KOR-1 [8]; agonist stimulation of [35S]GTPγS binding): 0.04 µM; EC50 (DOR-1 [6]): 0.244 µM
12 | CN1CC[C@]23c4c5ccc(O)c4O[C@H]2[C@@H](O)C=C[C@H]3[C@H]1C5 [morphine, reference compound] | – | – | 4.6 | – | – | – | – | 0.53 | – | respiratory rate (CD1 mice [9]; FIG. 8C: VM1501 2.5 mg/kg sc (5x ED50), morphine 10 mg/kg, 50 min post-injection): caused respiratory depression; respiratory rate (CD1 mice [9]; FIG. 12D, 2x antinociceptive ED50: VM1502 1.2 mg/kg sc, morphine 5 mg/kg): caused respiratory depression; respiratory rate (CD1 mice [9]; FIG. 12D, 5x antinociceptive ED50: VM1502 3 mg/kg sc, morphine 10 mg/kg): caused respiratory depression; respiratory rate (CD1 mice [9]; [11]): caused respiratory depression; ED50 (CD1 male mice): 2 mg/kg
13 | CC[C@@H]1CN2CCc3c([nH]c4cccc(O)c34)[C@@H]2C[C@@H]1/C(=C\OC)C(=O)OC [VM1532, Methyl (E)-2-((2S,3S,12bS)-3-ethyl-8-hydroxy-1,2,3,4,6,7,12,12b-octahydroindolo[2,3-a]quinolizin-2-yl)-3-methoxyacrylate] | 769 | 0.207 | – | 532 | 0.422 | 62 | – | 9 | – | –
14 | CC[C@@H]1CN2CC[C@]3(Nc4cccc(OC(C)=O)c4C3=O)C2C[C@@H]1/C(=C\OC)C(=O)OC (stereo partly drawn) [VM1510, (E)-methyl 2-((1'S,6'S,7'S)-4-acetoxy-6′-ethyl-3-oxo-3′,5′,6′,7′,8′,8a′-hexahydro-2′H-spiro[indoline-2,1′-indolizine]-7′-yl)-3-methoxyacrylate] | 31 | 0.0025 | 0.38 | 20 | 0.0039 | 120 | – | – | – | –
